Assay results reported in patent US20230172936A1, “VCP/p97 INHIBITOR FOR THE TREATMENT OF CANCER” (Cleave Therapeutics, Inc., priority 2020, published 2023).

Assays:
p97 = p97 (Homo sapiens, UniProt P55072); experiment: P97 inhibition assay (ADP glo); type: biochemical
Procedure: The p97 assay is an assay used to determine inhibitory activity of compounds against the p97 complex. Inhibition of activity of the p97 proteosome complex can enable apoptosis and cause elimination of neoplastic cells (cancer cells). The assay follows that of Christianson in Nat. Cell Biol., (2011) 14:93. The reagents used for the p97 assay include an assay buffer which is a mixture of 50 mM TRIS pH 7.5, 20 mM MgCI˜, 0.02% TX-100, 1 mM DTT and 0.2% (v/v) glycerol. The well plate is a Corning 3674, 384w plate. The identification kit is an ADP glo kit (Promega): stop buffer, detection reagent.
The assay is conducted as follows: • Serial dilute compound in DMSO in a 1:3.33-fold 10 point serial dilution. • In each well of 384w plate add the following reagents: 0.5 μL compound serial diluted in DMSO (Final Conc. 10%) 2 μL ATP (Final Conc.=20 μM, diluted in assay buffer) 2.5 μL p97 (Final Conc.=20 nM, diluted in assay buffer). • Incubate at 37° C. for 15 min. • Add 5 μL of stop buffer, incubate at RT for 40 min. • Add 10 μL of detection reagent, incubate at RT for 30 min. • Read luminescence on Envision plate reader. […]

CTG-2227 = experiment: Ex-vivo cytotoxicity by Cell Titer Glo; type: cell-based; conditions: Homo sapiens, 144 h; CTG-2227, 6 days
Procedure: (§1) Acute myelogenous leukemia (AML) is the most common acute leukemia in adults. A hematologic cancer, the disease is highly heterogeneous, with multiple subtypes. About 30% of AML cases harbor a FLT3/ITD mutation making the disease highly proliferative and more aggressive with a high risk of relapse.
(§2) Triplicate wells with media only and duplicate wells of vehicle (0.2% DMSO) were used as negative controls. […] To measure proliferation, untreated cells at days 0 and 6 were evaluated via Cell Titer Glo.
(§3) Protocol: • 1. AML cells were thawed and resuspended in enriched media composed of StemSpan™ Serum-Free Expansion Media (SFEM), 2% heat-inactivated FBS, StemSpan™ CC110 and recombinant human IL-3. • 2. 20,000 cells/well in 100 μL volume were plated on study day 0. • 3. […] Cells were incubated in the presence of drug for 6 days. • 5. On day 6, plates were removed from the incubator and equilibrated to room temperature for 20 minutes. 100 μL/well Cell Titer Glo was added to each well and incubated for 10 minutes before plate reading. • 6. Luminescence was recorded using Tecan Infinite M Plex plate reader.

CTG-2228 = experiment: Ex-vivo cytotoxicity by Cell Titer Glo; type: cell-based; conditions: Homo sapiens, 144 h; CTG-2228, 6 days
Procedure: as §1, §2, §3

CTG-2229 = experiment: Ex-vivo cytotoxicity by Cell Titer Glo; type: cell-based; conditions: Homo sapiens, 144 h; CTG-2229, 6 days
Procedure: as §1, §2, §3

CTG-2232 = experiment: Ex-vivo cytotoxicity by Cell Titer Glo; type: cell-based; conditions: Homo sapiens, 144 h; CTG-2232, 6 days
Procedure: as §1, §2, §3

CTG-2234 = experiment: Ex-vivo cytotoxicity by Cell Titer Glo; type: cell-based; conditions: Homo sapiens, 144 h; CTG-2234, 6 days
Procedure: as §1, §2, §3

CTG-2235 = experiment: Ex-vivo cytotoxicity by Cell Titer Glo; type: cell-based; conditions: Homo sapiens, 144 h; CTG-2235, 6 days
Procedure: as §1, §2, §3

CTG-2236 = experiment: Ex-vivo cytotoxicity by Cell Titer Glo; type: cell-based; conditions: Homo sapiens, 144 h; CTG-2236, 6 days
Procedure: as §1, §2, §3

CTG-2239 = experiment: Ex-vivo cytotoxicity by Cell Titer Glo; type: cell-based; conditions: Homo sapiens, 144 h; CTG-2239, 6 days
Procedure: as §1, §2, §3

CTG-2240 = experiment: Ex-vivo cytotoxicity by Cell Titer Glo; type: cell-based; conditions: Homo sapiens, 144 h; CTG-2240, 6 days
Procedure: as §1, §2, §3

CTG-2243 = experiment: Ex-vivo cytotoxicity by Cell Titer Glo; type: cell-based; conditions: Homo sapiens, 144 h; CTG-2243, 6 days
Procedure: as §1, §2, §3

CTG-2452 = experiment: Ex-vivo cytotoxicity by Cell Titer Glo; type: cell-based; conditions: Homo sapiens, 144 h; CTG-2452, 6 days
Procedure: as §1, §2, §3

CTG-2454 = experiment: Ex-vivo cytotoxicity by Cell Titer Glo; type: cell-based; conditions: Homo sapiens, 144 h; CTG-2454, 6 days
Procedure: as §1, §2, §3

CTG-2456 = experiment: Ex-vivo cytotoxicity by Cell Titer Glo; type: cell-based; conditions: Homo sapiens, 144 h; CTG-2456, 6 days
Procedure: as §1, §2, §3

CTG-2457 = experiment: Ex-vivo cytotoxicity by Cell Titer Glo; type: cell-based; conditions: Homo sapiens, 144 h; CTG-2457, 6 days
Procedure: as §1, §2, §3

CTG-2701 = experiment: Ex-vivo cytotoxicity by Cell Titer Glo; type: cell-based; conditions: Homo sapiens, 144 h; CTG-2701, 6 days
Procedure: as §1, §2, §3

CTG-2702 = experiment: Ex-vivo cytotoxicity by Cell Titer Glo; type: cell-based; conditions: Homo sapiens, 144 h; CTG-2702, 6 days
Procedure: as §1, §2, §3

CTG-2704 = experiment: Ex-vivo cytotoxicity by Cell Titer Glo; type: cell-based; conditions: Homo sapiens, 144 h; CTG-2704, 6 days
Procedure: as §1, §2, §3

CTG-2774 = experiment: Ex-vivo cytotoxicity by Cell Titer Glo; type: cell-based; conditions: Homo sapiens, 144 h; CTG-2774, 6 days
Procedure: as §1, §2, §3

CTG-2775 = experiment: Ex-vivo cytotoxicity by Cell Titer Glo; type: cell-based; conditions: Homo sapiens, 144 h; CTG-2775, 6 days
Procedure: as §1, §2, §3

CTG-2901 = experiment: Ex-vivo cytotoxicity by Cell Titer Glo; type: cell-based; conditions: Homo sapiens, 144 h; CTG-2901, 6 days
Procedure: as §1, §2, §3

CTG-3438 = experiment: Ex-vivo cytotoxicity by Cell Titer Glo; type: cell-based; conditions: Homo sapiens, 144 h; CTG-3438, 6 days
Procedure: as §1, §2, §3

CTG-3439 = experiment: Ex-vivo cytotoxicity by Cell Titer Glo; type: cell-based; conditions: Homo sapiens, 144 h; CTG-3439, 6 days
Procedure: as §1, §2, §3

CTG-3440 = experiment: Ex-vivo cytotoxicity by Cell Titer Glo; type: cell-based; conditions: Homo sapiens, 144 h; CTG-3440, 6 days
Procedure: as §1, §2, §3

p97, sequence (P55072 whole entry): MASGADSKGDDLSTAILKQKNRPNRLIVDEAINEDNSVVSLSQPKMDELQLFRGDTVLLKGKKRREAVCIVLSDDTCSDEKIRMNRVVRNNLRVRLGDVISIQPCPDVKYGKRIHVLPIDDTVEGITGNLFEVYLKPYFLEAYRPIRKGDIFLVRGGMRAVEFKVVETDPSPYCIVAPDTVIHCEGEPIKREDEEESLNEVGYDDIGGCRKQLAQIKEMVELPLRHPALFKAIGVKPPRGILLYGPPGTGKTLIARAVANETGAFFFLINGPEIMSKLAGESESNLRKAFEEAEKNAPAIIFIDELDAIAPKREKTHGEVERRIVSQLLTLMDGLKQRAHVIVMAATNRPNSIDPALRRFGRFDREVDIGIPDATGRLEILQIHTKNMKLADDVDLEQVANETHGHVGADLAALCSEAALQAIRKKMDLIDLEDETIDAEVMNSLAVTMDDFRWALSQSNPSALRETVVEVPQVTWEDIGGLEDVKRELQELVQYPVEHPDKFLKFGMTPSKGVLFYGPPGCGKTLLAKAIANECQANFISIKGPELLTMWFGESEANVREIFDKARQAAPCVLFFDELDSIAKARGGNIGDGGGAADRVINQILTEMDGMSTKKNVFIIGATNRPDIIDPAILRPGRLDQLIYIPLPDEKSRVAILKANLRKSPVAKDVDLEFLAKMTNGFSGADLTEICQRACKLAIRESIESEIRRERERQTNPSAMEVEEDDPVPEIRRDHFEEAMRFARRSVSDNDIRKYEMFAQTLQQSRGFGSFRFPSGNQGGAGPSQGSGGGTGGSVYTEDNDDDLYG

**Q.** With `Cc1cc2c(C(N)=O)cccc2n1-c1nc2c(c(NCc3ccccc3)n1)CCCN2` [Compound 1, 1-(4-(Benzylamino)-5,6,7,8-tetrahydropyrido[2,3-d]pyrimidin-2-yl)-2-methyl-1H-indole-4-carboxamide] as the compound, how does the IC50 (p97) read?
**A.** The IC50 was < 0.03 µM.

**Q.** What about the IC50 (CTG-2227) of the same compound?
**A.** Its IC50 is 0.274 µM.

**Q.** And the IC50 (CTG-2228)?
**A.** Its IC50 is 0.568 µM.

**Q.** And the IC50 (CTG-2229)?
**A.** The IC50 was 0.752 µM.

**Q.** And the IC50 (CTG-2232)?
**A.** Its IC50 is 0.275 µM.

**Q.** What about the IC50 (CTG-2234) of the same compound?
**A.** Its IC50 is 0.485 µM.

**Q.** And the IC50 (CTG-2235)?
**A.** The IC50 was 0.362 µM.

**Q.** And the IC50 (CTG-2236)?
**A.** The IC50 was 0.527 µM.

**Q.** And the IC50 (CTG-2239)?
**A.** Its IC50 is 0.395 µM.

**Q.** What about the IC50 (CTG-2240) of the same compound?
**A.** Its IC50 is 0.5 µM.

**Q.** What about the IC50 (CTG-2243) of the same compound?
**A.** Its IC50 is 0.46 µM.

**Q.** What about the IC50 (CTG-2452) of the same compound?
**A.** The IC50 was 0.512 µM.

**Q.** And the IC50 (CTG-2454)?
**A.** The IC50 was 0.208 µM.

**Q.** What about the IC50 (CTG-2456) of the same compound?
**A.** The IC50 was 0.212 µM.

**Q.** And the IC50 (CTG-2457)?
**A.** Its IC50 is 0.627 µM.

**Q.** And the IC50 (CTG-2701)?
**A.** The IC50 was 0.395 µM.

**Q.** What about the IC50 (CTG-2702) of the same compound?
**A.** Its IC50 is 0.427 µM.

**Q.** And the IC50 (CTG-2704)?
**A.** Its IC50 is 0.666 µM.

**Q.** What about the IC50 (CTG-2774) of the same compound?
**A.** The IC50 was 0.327 µM.

**Q.** What about the IC50 (CTG-2775) of the same compound?
**A.** Its IC50 is 0.437 µM.

**Q.** And the IC50 (CTG-2901)?
**A.** Its IC50 is 0.446 µM.

**Q.** And the IC50 (CTG-3438)?
**A.** The IC50 was 0.263 µM.

**Q.** And the IC50 (CTG-3439)?
**A.** Its IC50 is 0.691 µM.

**Q.** And the IC50 (CTG-3440)?
**A.** The IC50 was 0.332 µM.
